{"source": "the supplement of paper PMC10307832", "assay_in_all_cases": "relative viability (nuclei count vs DMSO), 5 days (fraction); higher = more cells survive", "key": {"[1]": {"compound": "Nc1ccccc1NC(=O)c1ccc(CNC(=O)OCc2cccnc2)cc1 [Entinostat] + O=C(c1cc(Cc2n[nH]c(=O)c3ccccc23)ccc1F)N1CCN(C(=O)C2CC2)CC1 [Olaparib] (partner 8 µM)", "how_it_was_run": "(§1)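 Lung cancer cell lines, seeded in 1536-well plates, were treated the following day by pin tool with a single drug or with five library-drug doses (not always all listed) in √10 steps on top of a fixed anchor-drug dose. Cells were fixed and nuclei stained in one step after 5 days, and nuclei were counted. Relative viability is the nuclei count for treated wells divided by that for vehicle wells, reported as medians of duplicate plates.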"}, "[2]": {"compound": "C1COCCN1C2=NC(=NC3=C2OC4=C3C=CC=N4)C5=CC(=CC=C5)NC(=O)C6=CN=C(C=C6)N + COc1cccc2cc(-c3nc([C@H]4CC[C@H](C(=O)O)CC4)n4ncnc(N)c34)[nH]c12 [OSI-027] (partner 0.5 µM)", "how_it_was_run": "as §1"}, "[3]": {"compound": "Nc1ccccc1NC(=O)c1ccc(CNC(=O)OCc2cccnc2)cc1 [Entinostat] + N=C(N)NC(=N)NCCc1ccccc1 [Phenformin] (partner 250 µM)", "how_it_was_run": "as §1"}, "[4]": {"compound": "Nc1ccccc1NC(=O)c1ccc(CNC(=O)OCc2cccnc2)cc1 [Entinostat] + CC1(C)CCC(c2ccc(Cl)cc2)=C(CN2CCN(c3ccc(C(=O)NS(=O)(=O)c4ccc(N[C@H](CCN5CCOCC5)CSc5ccccc5)c(S(=O)(=O)C(F)(F)F)c4)cc3)CC2)C1 [Navitoclax] (partner 0.5 µM)", "how_it_was_run": "as §1"}}}
{"cell line": "UMC-11", "values": [{"measurement": "relative viability", "setting": "[1]; first compound 0.02 µM", "value": 0.376}, {"measurement": "relative viability", "setting": "[1]; first compound 0.06325 µM", "value": 0.345}, {"measurement": "relative viability", "setting": "[1]; first compound 0.2 µM", "value": 0.242}, {"measurement": "relative viability", "setting": "[1]; first compound 0.6325 µM", "value": 0.116}, {"measurement": "relative viability", "setting": "[1]; first compound 2 µM", "value": 0.0922}, {"measurement": "relative viability", "setting": "[2]; first compound 0.02 µM", "value": 0.443}, {"measurement": "relative viability", "setting": "[2]; first compound 0.06325 µM", "value": 0.511}, {"measurement": "relative viability", "setting": "[2]; first compound 0.2 µM", "value": 0.46}, {"measurement": "relative viability", "setting": "[2]; first compound 0.6325 µM", "value": 0.406}, {"measurement": "relative viability", "setting": "[2]; first compound 2 µM", "value": 0.375}, {"measurement": "relative viability", "setting": "[3]; first compound 0.02 µM", "value": 0.307}, {"measurement": "relative viability", "setting": "[3]; first compound 0.06325 µM", "value": 0.334}, {"measurement": "relative viability", "setting": "[3]; first compound 0.2 µM", "value": 0.347}, {"measurement": "relative viability", "setting": "[3]; first compound 0.6325 µM", "value": 0.21}, {"measurement": "relative viability", "setting": "[3]; first compound 2 µM", "value": 0.188}, {"measurement": "relative viability", "setting": "[4]; first compound 0.02 µM", "value": 0.29}, {"measurement": "relative viability", "setting": "[4]; first compound 0.06325 µM", "value": 0.302}, {"measurement": "relative viability", "setting": "[4]; first compound 0.2 µM", "value": 0.25}, {"measurement": "relative viability", "setting": "[4]; first compound 0.6325 µM", "value": 0.117}, {"measurement": "relative viability", "setting": "[4]; first compound 2 µM", "value": 0.115}]}
